The data set has as its system NCI60 cell lines. As to conditions: not told.

The record followed here is patent US20050227266A1, “Biomarker:compound correlations in cancer diagnosis and therapy” (priority 2004, published 2005).

Structures are written as SMILES.

Description: Compounds are tested according to a standard protocol (dtp.nci.nih.gov/branches/btb/ivclsp.html, reproduced as Appendix B), and GI50 data (i.e., data indicating the concentration of a compound that inhibits growth of a particular cell line by 50% after 48 hours of exposure) for many compounds, including a set of 171 so-called Standard Agents (dtp.nci.nih.gov/docs/cancer/searches/standard_agent.html, reproduced as Appendix C) are made publicly available.
Inventive biomarker:compound correlations are established by comparing the expression/activity expression and compound toxicity datasets. […] Such comparisons can quantify the association between the variables, e.g., using a Pearson or Spearman correlation. […] For example, to aid in the identification of non-linear relationships between compound toxicity and presence of a biomarker (e.g., a threshold response), values above or below a certain limit may be given a common value, or weighted, before the comparison is measured.
The present inventors established a gene expression profile for each of the 59 publicly-available NCI60 cell lines. […] Specifically, cDNAs that were detectable in fewer than 80% of the cell lines were discarded; approximately 17,000 unique genes were left whose measurements were recorded. […]

For `CC(=O)O[C@H]1C(=O)[C@@]2(C)[C@H]([C@H](OC(=O)c3ccccc3)[C@]3(O)C[C@H](OC(=O)[C@H](O)[C@@H](NC(=O)c4ccccc4)c4ccccc4)C(C)=C1C3(C)C)[C@]1(OC(C)=O)CO[C@@H]1C[C@@H]2O` [Paclitaxol], the “correlation of toxicity pattern with ABCB1 (PGP) gene expression” value was “highest negative correlation”.
